In US12187709B2 (Genentech, Inc., priority 2021, dated 2025):

Key:
[1] = molecular target: Cbl-b (Homo sapiens (Human), UniProt Q13191); assay: Cbl-b LCK Ub TR-FRET assay (Cbl-b Lck HTRF); assay type: biochemical; details: for IC50: Cbl-b LCK Ub TR-FRET; for fold-selectivity (Cbl-b over C-cbl) / (fold-selectivity) Cbl-b and C-Cbl Selectivity: ratio C-cbl Lck HTRF IC50 / Cbl-b Lck HTRF IC50
Procedure, shortened: (§1)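 Signal is read once the detection mix has stood 20 min at ambient temperature. Curves are anchored by DMSO as maximum and by omission of LCK as minimum.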

[2] = molecular target: c-Cbl (Homo sapiens (Human), UniProt P22681); assay: C-Cbl LCK Ub TR-FRET assay (C-cbl Lck HTRF); assay type: biochemical
Sequence of c-Cbl (P22681 47-435): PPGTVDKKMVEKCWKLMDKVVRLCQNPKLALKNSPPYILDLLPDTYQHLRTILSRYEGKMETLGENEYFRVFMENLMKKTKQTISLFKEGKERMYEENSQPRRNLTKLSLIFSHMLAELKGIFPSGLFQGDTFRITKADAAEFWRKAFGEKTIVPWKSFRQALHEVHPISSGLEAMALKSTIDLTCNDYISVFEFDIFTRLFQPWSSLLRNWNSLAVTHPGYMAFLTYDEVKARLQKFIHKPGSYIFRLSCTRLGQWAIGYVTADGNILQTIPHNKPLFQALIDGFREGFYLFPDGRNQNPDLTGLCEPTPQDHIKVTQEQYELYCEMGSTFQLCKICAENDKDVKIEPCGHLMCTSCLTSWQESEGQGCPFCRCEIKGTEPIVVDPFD
Procedure, shortened: as §1

[3] = molecular target: Human Cbl-b (residues 40-426) (Homo sapiens (Human), UniProt Q13191); assay: Cbl-b SPR assay; assay type: binding; details: for Fold of selectivity: C-cbl SPR Kd vs Cbl-b SPR Kd; for Kd: SPR, 20° C.
Sequence of Human Cbl-b (residues 40-426) (Q13191 40-426): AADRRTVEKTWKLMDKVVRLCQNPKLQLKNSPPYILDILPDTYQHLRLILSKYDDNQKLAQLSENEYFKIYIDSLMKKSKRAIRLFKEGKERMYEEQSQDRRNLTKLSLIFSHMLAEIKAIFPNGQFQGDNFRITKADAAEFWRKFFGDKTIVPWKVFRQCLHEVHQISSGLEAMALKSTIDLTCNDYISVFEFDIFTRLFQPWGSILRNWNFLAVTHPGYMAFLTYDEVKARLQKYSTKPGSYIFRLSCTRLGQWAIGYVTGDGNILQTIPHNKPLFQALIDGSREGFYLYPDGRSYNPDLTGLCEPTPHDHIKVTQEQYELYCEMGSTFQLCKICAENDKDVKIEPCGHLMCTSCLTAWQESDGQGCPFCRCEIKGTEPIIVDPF
Procedure, shortened: (§2)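 Binding was measured by SPR and fitted to a 1:1 model from multi-cycle kinetics with double referencing, 6 concentrations in 2-fold dilution. Alternatively, single-cycle titrations up to 500 nM (120 s contact) were fitted with kd fixed from a single-exponential fit of chaser-measured % compound bound versus time.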

[4] = molecular target: c-Cbl (residues 47-435) (Homo sapiens (Human), UniProt P22681); assay: c-Cbl SPR assay; assay type: binding; details: 20° C.
Sequence of c-Cbl (residues 47-435) (P22681 47-435): as the sequence (P22681 47-435) above
Procedure, shortened: as §2

Sequence of Cbl-b (Q13191 40-426): as the sequence (Q13191 40-426) above

| SMILES | IC50 [1] | fold-selectivity (Cbl-b over C-cbl) [1] | IC50 [2] | Fold of selectivity [3] | Kd [3] | Kd [4] | IC50 ([1]; Example 121) | (fold-selectivity) Cbl-b and C-Cbl Selectivity [1] |
| --- | --- | --- | --- | --- | --- | --- | --- | --- |
| CCOc1cc(N2Cc3c(cc(CNC4(C)CCC4)cc3C(F)(F)F)C2=O)cc([C@]2(c3nncn3C)C[C@H](C)C2)c1 [Compound 189, 2-(3-ethoxy-5-((1r,3r)-3-methyl-1-(4-methyl-4H-1,2,4-triazol-3-yl)cyclobutyl)phenyl)-6-(((1-methylcyclobutyl)amino)methyl)-4-(trifluoromethyl)isoindolin-1-one] | 7.2 nM | 0.56x | 4.1 nM | 3.3× | 0.3 nM | 1 nM |  |  |
| CO[C@H]1C[C@](c2cccc(N3Cc4ccc(CNC5(C)CCC5)cc4C3=O)c2)(c2nncn2C)C1 [Compound 449, 2-(3-((1r,3r)-3-methoxy-1-(4-methyl-4H-1,2,4-triazol-3-yl)cyclobutyl)phenyl)-6-(((1-methylcyclobutyl)amino)methyl)isoindolin-1-one] |  |  | 1200 nM | 8.0× | 120 nM | 920 nM | 220 nM | 5.4x |
| CC(C)[C@H]1CN(C)CCN1Cc1cc2c(c(C(F)(F)F)c1)CN(c1cccc([C@]3(c4nncn4C)C[C@@H](C#N)C3)c1)C2=O (single isomer, unassigned) [Compound 64] | 24 nM | (2.9x) | 70 nM | 5.1× | 16 nM | 81 nM |  |  |
| Cn1cnnc1C1(c2cccc(N3Cc4c(cc(CNC5(C)CCC5)cc4C(F)(F)F)C3=O)c2)CCCC1 [Compound 292, 2-(3-(1-(4-methyl-4H-1,2,4-triazol-3-yl)cyclopentyl)phenyl)-6-(((1-methylcyclobutyl)amino)methyl)-4-(trifluoromethyl)isoindolin-1-one] | 9.8 nM | 2.4x | 23 nM | 6.3× | 5 nM | 31 nM |  |  |
| Cn1cnnc1C1(c2cccc(N3Cc4c(cc([C@@H](CO)NC5(C)CCC5)cc4C(F)(F)F)C3=O)c2)CCC1 (single isomer, unassigned) [Compound 149] | 4.9 nM | 0.82x | 4.1 nM | 4.7× | 0.3 nM | 1.4 nM |  |  |
| COC[C@H]1CC1(c1cccc(N2Cc3c(cc(CNC4(C)CCC4)cc3C(F)(F)F)C2=O)c1)c1nncn1C (single isomer, unassigned) [Compound 167] | 1400 nM | 4.7x | 6400 nM | 5.8× | 910 nM | 5200 nM |  |  |
| Cn1cnnc1[C@]1(c2cccc(N3Cc4c(cc(CNC5(C)CCC5)cc4C(F)(F)F)C3=O)c2)C[C@](C)(O)C1 [Compound 26, 2-(3-((1s,3s)-3-hydroxy-3-methyl-1-(4-methyl-4H-1,2,4-triazol-3-yl)cyclobutyl)phenyl)-6-(((1-methylcyclobutyl)amino)methyl)-4-(trifluoromethyl)isoindolin-1-one] | 30 nM | (3.3x) | 99 nM | 9.0× | 10 nM | 90 nM |  |  |
| CCC(NCc1cc2c(c(C(F)(F)F)c1)CN(c1cccc([C@]3(c4nncn4C)C[C@H](OC)C3)c1)C2=O)C(=O)OC (stereo partly drawn) [Compound 425, methyl 2-(((2-(3-((1r,3r)-3-methoxy-1-(4-methyl-4H-1,2,4-triazol-3-yl)cyclobutyl)phenyl)-3-oxo-7-(trifluoromethyl)isoindolin-5-yl)methyl)amino)butanoate] |  |  | 880 nM | 11× | 170 nM | 1900 nM | 130 nM | 6.8x |
| CC(C)[C@H]1CN(C)CCN1Cc1cc(Cl)c2c(c1)C(=O)N(c1cccc(C3(c4nncn4C)CC4(COC4)C3)c1)C2 (single isomer, unassigned) [Compound 204] | 13 nM | 2.3x | 29 nM | 4.1× | 3.7 nM | 15 nM |  |  |
| CO[C@H]1C[C@](c2cccc(N3Cc4c(cc(CNCCC5CCC5(F)F)cc4C(F)(F)F)C3=O)c2)(c2nncn2C)C1 (stereo partly drawn) [Compound 499, 6-(((2-(2,2-difluorocyclobutyl)ethyl)amino)methyl)-2-(3-((1r,3r)-3-methoxy-1-(4-methyl-4H-1,2,4-triazol-3-yl)cyclobutyl)phenyl)-4-(trifluoromethyl)isoindolin-1-one] |  |  | 78 nM | 19× | 3.7 nM | 79 nM | 16 nM | 5.0x |
| CCc1cc(N2Cc3c(cc(CNC4(C)CCC4)cc3C(F)(F)F)C2=O)cc([C@]2(c3nncn3C)C[C@@H](OC)C2)c1 [Compound 235, 2-(3-ethyl-5-((1s,3s)-3-methoxy-1-(4-methyl-4H-1,2,4-triazol-3-yl)cyclobutyl)phenyl)-6-(((1-methylcyclobutyl)amino)methyl)-4-(trifluoromethyl)isoindolin-1-one] | 78 nM | 1.4x | 110 nM | 2.9× | 36 nM | 110 nM |  |  |
| CO[C@H]1C[C@](c2cccc(N3Cc4c(cc(CN5CCC5)cc4C(F)(F)F)C3=O)c2)(c2nncn2C)C1 [Compound 480, 6-(azetidin-1-ylmethyl)-2-(3-((1r,3r)-3-methoxy-1-(4-methyl-4H-1,2,4-triazol-3-yl)cyclobutyl)phenyl)-4-(trifluoromethyl)isoindolin-1-one] |  |  | 280 nM | 11× | 45 nM | 490 nM | 34 nM | 7.9x |
| Cn1cnnc1[C@@H](c1cccc(N2Cc3c(cc(CNC4(C)CCC4)cc3C(F)(F)F)C2=O)c1)C1CC1 (single isomer, unassigned) [Compound 342] | 5.6 nM | 1.2x | 6.6 nM | 2.4× | 0.5 nM | 1.2 nM |  |  |
| CO[C@H]1C[C@](c2cccc(N3Cc4c(cc(CN[C@@]56CCC[C@@H]5C6)cc4C(F)(F)F)C3=O)c2)(c2nncn2C)C1 [Compound 508, 6-(((1R,5R)-bicyclo[3.1.0]hexan-1-ylamino)methyl)-2-(3-((1r,3R)-3-methoxy-1-(4-methyl-4H-1,2,4-triazol-3-yl)cyclobutyl)phenyl)-4-(trifluoromethyl)isoindolin-1-one] |  |  | 24 nM | 14× | 1.7 nM | 24 nM | 6.2 nM | 3.8x |
| Cn1cnnc1C(F)(c1cccc(N2Cc3c(cc(CNC4(C)CCC4)cc3C(F)(F)F)C2=O)c1)C1(F)COC1 (stereo in doubt) [Compound 403, (S)-2-(3-(fluoro(3-fluorooxetan-3-yl)(4-methyl-4H-1,2,4-triazol-3-yl)methyl)phenyl)-6-(((1-methylcyclobutyl)amino)methyl)-4-(trifluoromethyl)isoindolin-1-one] | 750 nM | 1.3x | 960 nM | 1.0× | 2500 nM | 2400 nM |  |  |
| Cn1cnnc1[C@@H](c1cccc(N2Cc3c(cc(CNCC(C)(C)F)cc3C(F)(F)F)C2=O)c1)C1COC1 [Compound 463, (R)-6-(((2-fluoro-2-methylpropyl)amino)methyl)-2-(3-((4-methyl-4H-1,2,4-triazol-3-yl)(oxetan-3-yl)methyl)phenyl)-4-(trifluoromethyl)isoindolin-1-one] |  |  | 12 nM | 5.2× | 3.2 nM | 17 nM | 6.5 nM | 1.9x |
| COCCC1(NCc2cc3c(c(C(F)(F)F)c2)CN(c2cccc([C@]4(c5nncn5C)C[C@H](OC)C4)c2)C3=O)CCC1 [Compound 493, 2-(3-((1r,3r)-3-methoxy-1-(4-methyl-4H-1,2,4-triazol-3-yl)cyclobutyl)phenyl)-6-(((1-(2-methoxyethyl)cyclobutyl)amino)methyl)-4-(trifluoromethyl)isoindolin-1-one] |  |  | 230 nM | 7.8× | 18 nM | 140 nM | 28 nM | 8.5x |
| Cn1cnnc1[C@@H](c1cccc(N2Cc3c(cc(CNC4(C)CCC4)cc3C(F)(F)F)C2=O)c1)C1CC(OC(F)(F)F)C1 (single isomer, unassigned) [Compound 398] | 5.8 nM | 1.1x | 6.5 nM | 4.5× | 2 nM | 9 nM |  |  |
| Cn1cnnc1[C@@H](c1cccc(N2Cc3c(cc([C@@H](NC4(C)CCC4)C4CC4)cc3C(F)(F)F)C2=O)c1)C1COC1 (single isomer, unassigned) [Compound 430] |  |  | 91 nM | 14× | 5.9 nM | 74 nM | 19 nM | 4.7x |
| CO[C@H]1C[C@@](c2cccc(N3Cc4c(cccc4C(F)(F)F)C3=O)c2)(c2nncn2C)C1 [Compound 190, 2-(3-((1s,3s)-3-methoxy-1-(4-methyl-4H-1,2,4-triazol-3-yl)cyclobutyl)phenyl)-4-(trifluoromethyl)isoindolin-1-one] | 7800 nM | 2.0x | 16000 nM | 2.2× | 5200 nM | 11000 nM |  |  |
